Results published in the RepoRT retention time repository (doi:10.1016/j.chroma.2014.05.003).

Test: RP, Agilent ZORBAX Eclipse Plus C18, 50 × 4.6 mm, 1.8 µm, 0.5 mL/min, estimated dead time 1.1 min; A: water + 0.1% formic acid; B: acetonitrile + 0.1% formic acid; gradient (min/%B) 0/10 3/10 25/100 28/100
Conditions: stereoisomer not certain

SMILES | LC retention time [min]
CCOc1cc(OP(=S)(OC)OC)nc(CC)n1 | 18.8
CCC(=O)C(CC(C)N(C)C)(c1ccccc1)c1ccccc1 (stereo not drawn) | 11.4
CN(C)C(=O)Nc1ccccc1 | 7.72
COP(=O)(NC(C)=O)SC (stereo not drawn) | 1.86
CNC(=O)Oc1cc(C)cc(C(C)C)c1 | 15
COC(=O)c1ccc(C)cc1C1=NC(C)(C(C)C)C(=O)N1 (stereo not drawn) | 9.12
CC(C)NCC(O)COc1cccc2[nH]ccc12 (stereo not drawn) | 5.55
CON(C(=O)c1cc(C)oc1C)C1CCCCC1 | 17.7
O=C(O)c1ccccc1C(=O)Nc1cccc2ccccc12 | 11.7
CNC(=O)Oc1ccccc1OC(C)C | 11.9
CNCC(O)c1cccc(O)c1 (stereo not drawn) | 1.36
COP(=S)(OC)Oc1ccc(Sc2ccc(OP(=S)(OC)OC)cc2)cc1 | 21.2
c1coc(-c2nc3ccccc3[nH]2)c1 | 5.19
O=C1CCc2cccc3c2N1CC3 | 10.2
CC12CCC3C(=CCc4cc(O)ccc43)C1CCC2=O (stereo not drawn) | 14.4
CCOP(=S)(OCC)Oc1ccc(=O)n(-c2ccccc2)n1 | 16.1
CCCC1CC(C(=O)NC(C(C)O)C2OC(SC)C(O)C(O)C2O)N(C)C1 (stereo not drawn) | 3.66
CC(Cc1ccc(C(C)(C)C)cc1)CN1CCCCC1 (stereo not drawn) | 12.5
CC(C)N1C(=O)c2ccccc2NS1(=O)=O | 12.7
CCCCCCCCCCCCCCCC[N+](C)(C)Cc1ccccc1 | 20.6
Cn1c(=O)c2c(ncn2C)n(C)c1=O | 5.08
CC1(C)SC2C(NC(=O)Cc3ccccc3)C(=O)N2C1C(=O)O (stereo not drawn) | 10.8

SMILES | LC retention time [min]
Cc1cc(C)nc(Nc2ccccc2)n1 | 11.6
CC(=O)Nc1ccc(O)cc1 | 2.66
CC(C)(C)NCC(O)COc1nsnc1N1CCOCC1 (stereo not drawn) | 6.87
Cc1nnc(-c2ccccc2)c(=O)n1N | 7.57
CN1C2CCC1C(C(=O)O)C(OC(=O)c1ccccc1)C2 (stereo not drawn) | 6.61
CCCCCCCCCCCCCC[N+](C)(C)Cc1ccccc1 | 18.4
CCOc1ccc(NC(C)=O)cc1 | 9.38
CCC(C)C(=O)OC1CC(O)C=C2C=CC(C)C(CCC(O)CC(O)CC(=O)O)C21 (stereo not drawn) | 10.7
CNC(=O)Oc1cccc(C)c1 | 11
COc1ccc(Oc2ccc(NC(=O)N(C)C)cc2)cc1 | 13.3
CCC1CCCC(OC2CCC(N(C)C)C(C)O2)C(C)C(=O)C2=CC3C(C=C(C)C4CC(OC5OC(C)C(OC)C(OC)C5OC)CC43)C2CC(=O)O1 (stereo not drawn) | 14.2
C#CC1(O)CCC2C3CCc4cc(O)ccc4C3CCC21C (stereo not drawn) | 14.3
CNC(=O)N(C)c1nnc(C(C)(C)C)s1 | 9.87
COC(=O)c1ccccc1CS(=O)(=O)NC(=O)Nc1nc(OC)cc(OC)n1 | 14.2
CC12CCC3c4ccc(O)cc4CCC3C1CC(O)C2O (stereo not drawn) | 9.36
CCCSc1ccc2nc(NC(=O)OC)[nH]c2c1 | 10.5
O=c1[nH]c2c(c(=O)n1C1CCCCC1)CCC2 | 11.3
CCCCc1c(C)nc(NCC)nc1OS(=O)(=O)N(C)C | 14.4
Cn1c(=O)c2[nH]cnc2n(C)c1=O | 2.8
COc1cccc(C(=O)NN(C(=O)c2cc(C)cc(C)c2)C(C)(C)C)c1C | 16.6
Cc1cc(NS(=O)(=O)c2ccc(N)cc2)no1 | 9.06
COC1C(OC(C)=O)CC(=O)OC(C)CC=CC=CC(O)C(C)CC(CC=O)C1OC1OC(C)C(OC2CC(C)(O)C(OC(=O)CC(C)C)C(C)O2)C(N(C)C)C1O (stereo not drawn) | 12

SMILES | LC retention time [min]
CCn1cc(C(=O)O)c(=O)c2cc3c(cc21)OCO3 | 9.71
CC1=NNC(=O)N(N=Cc2cccnc2)C1 | 1.4
COC(=O)C1C(OC(=O)c2ccccc2)CC2CCC1N2C (stereo not drawn) | 7.3
CCOP(=S)(Oc1ccc([N+](=O)[O-])cc1)c1ccccc1 (stereo not drawn) | 20
Cn1cnc2c1c(=O)[nH]c(=O)n2C | 1.96
CCN(CC)C(=O)C(C)Oc1cccc2ccccc12 (stereo not drawn) | 16.3
COc1ccc2cc(C(C)C(=O)O)ccc2c1 (stereo not drawn) | 13.8
CCCN(CCC)c1c([N+](=O)[O-])cc(S(N)(=O)=O)cc1[N+](=O)[O-] | 17
CON=C(C(=O)OC)c1ccccc1COc1ccccc1C | 18
CC(C)C1(C)N=C(c2ncccc2C(=O)O)NC1=O (stereo not drawn) | 16.5
COCC(=O)N(c1c(C)cccc1C)N1CCOC1=O | 10.9
Nc1ccc(S(=O)(=O)Nc2ccccn2)cc1 | 5.27
CCOP(=O)(OCC)OCC | 9.03
CCSC(=O)N(CC)C1CCCCC1 | 19.8
CCC(C)C(=O)OC1CCC=C2C=CC(C)C(CCC3CC(O)CC(=O)O3)C21 (stereo not drawn) | 15.7
Nc1ccc(S(=O)(=O)Nc2ncccn2)cc1 | 4.16
CCOP(=S)(OCC)OP(=S)(OCC)OCC | 19.3
CCSC(=O)N1CCCCCC1 | 16
CCOP(=O)(NC(C)C)Oc1ccc(SC)c(C)c1 (stereo not drawn) | 15.4
CCC1OC(=O)C(C)C(OC2CC(C)(OC)C(O)C(C)O2)C(C)C(OC2OC(C)CC(N(C)C)C2O)C(C)(O)CC(C)C(=NOCOCCOC)C(C)C(O)C1(C)O (stereo not drawn) | 11.3
CCOC(=O)CCN(SN(C)C(=O)Oc1cccc2c1OC(C)(C)C2)C(C)C | 20.8
CCCCCCCCCCCC[N+](C)(C)Cc1ccccc1 | 16.2

SMILES | LC retention time [min]
CCN(CC)N=O | 15.9
CCNc1nc(NC(C)C)nc(SC)n1 | 10.4
CNC(=O)ON=CC(C)(C)SC | 10.2
COc1cc(NS(=O)(=O)c2ccc(N)cc2)nc(OC)n1 | 10.4
CON=C(C(=O)NC1C(=O)N2C(C(=O)O)=C(COC(C)=O)CSC12)c1csc(N)n1 (stereo not drawn) | 6.29
CN1CCCC1c1cccnc1 (stereo not drawn) | 1.36
CC(C(=O)O)c1cccc(C(=O)c2ccccc2)c1 (stereo not drawn) | 13.7
CC(C)(C)C(O)C(Oc1ccc(-c2ccccc2)cc1)n1cncn1 (stereo not drawn) | 16.6
CNC(=O)Oc1ccc(N(C)C)c(C)c1 | 1.85
CCOP(=S)(OCC)SCn1nnc2ccccc2c1=O | 17.4
CC(N)Cc1ccc2c(c1)OCO2 (stereo not drawn) | 4.74
COC(=O)Nc1nc2ccc(C(=O)c3ccccc3)cc2[nH]1 | 10.7
CSc1nc(NC2CC2)nc(NC(C)(C)C)n1 | 12.6
CCNC(C)Cc1ccccc1 (stereo not drawn) | 5.85
CSc1nc(NC(C)C)nc(NC(C)C)n1 | 12.1
Nc1ncn[nH]1 | 1.36
CC1=C(C(=O)Nc2ccccc2)SCCO1 | 13.1
CNC(C)Cc1ccccc1 (stereo not drawn) | 4.88
CNC(=O)Oc1cccc2c1OC(C)(C)C2 | 12.1
Nc1ccc(S(=O)(=O)Nc2nccs2)cc1 | 5.2
C=C(C)C1Cc2c(ccc3c2OC2COc4cc(OC)c(OC)cc4C2C3=O)O1 (stereo not drawn) | 17.2
CC(COc1ccc(Oc2ccccc2)cc1)Oc1ccccn1 (stereo not drawn) | 21.2

SMILES | LC retention time [min]
CCC(C)C1OC2(C=CC1C)CC1CC(CC=C(C)C(OC3CC(OC)C(OC4CC(OC)C(NC(C)=O)C(C)O4)C(C)O3)C(C)C=CC=C3COC4C(O)C(C)=CC(C(=O)O1)C34O)O2 (stereo not drawn) | 21.2
CCn1cc(C(=O)O)c(=O)c2ccc(C)nc21 | 11.5
CNC(C)Cc1ccc2c(c1)OCO2 (stereo not drawn) | 5.39
Cc1cccc(Nc2ccccc2C(=O)O)c1C | 17.7
CCC(C)(CC)c1cc(NC(=O)c2c(OC)cccc2OC)on1 | 16.5
Cn1c(=O)[nH]c(=O)c2[nH]cnc21 | 1.47
CCOP(=S)(OCC)Oc1ccc([N+](=O)[O-])cc1 | 18.5
COP(N)(=O)SC (stereo not drawn) | 1.61
Cc1onc(-c2ccccc2)c1C(=O)NC1C(=O)N2C1SC(C)(C)C2C(=O)O (stereo not drawn) | 12.8
CC(C)Cc1ccc(C(C)C(=O)O)cc1 (stereo not drawn) | 16.6
COc1nc(NC(C)C)nc(NC(C)C)n1 | 9.02
CCOc1ccc2c(c1)C(C)=CC(C)(C)N2 | 11.8
Cc1cc(=O)n(-c2ccccc2)n1C | 6.97
CN(C)C(=O)Nc1cccc(OC(=O)NC(C)(C)C)c1 | 11.6
CC12CCC(=O)C=C1CCC1C2CCC2(C)C(O)CCC12 (stereo not drawn) | 13.7
CS(=O)(=O)c1ccc(C(=O)C2C(=O)CCCC2=O)c([N+](=O)[O-])c1 | 12
CN1C2CCC1CC(OC(=O)C(CO)c1ccccc1)C2 (stereo not drawn) | 6.29
CSc1nnc(C(C)(C)C)c(=O)n1N | 11.5
COc1cc(C2c3cc4c(cc3C(OC3OC5COC(C)OC5C(O)C3O)C3COC(=O)C23)OCO4)cc(OC)c1OP(=O)(O)O (stereo not drawn) | 16.1
COC=C(C(=O)OC)c1ccccc1Oc1cc(Oc2ccccc2C#N)ncn1 | 15.8
